Experimental data reported in the SangsterLogP compilation.

What was measured:
[1] = method code SF-AS, from DOI: 10.1016/0014-2999(72)90235-x, PMID: 4113999
[2] = method code SF-RC, from DOI: 10.1016/j.nucmedbio.2009.01.009, PMID: 19423014; conditions: pH 7.4
[3] = method code SF-RC, from DOI: 10.1016/j.nucmedbio.2006.10.003, PMID: 17210465; conditions: pH 7.4
[4] = method code SF-RC, from DOI: 10.1016/j.nucmedbio.2008.04.004, PMID: 18589308; conditions: pH 7.4
[5] = method code SF, from PMID: 3183
[6] = not given; remark: listed apart in the source
[7] = not given; remark: listed apart in the source
[8] = not given; remark: listed apart in the source
[9] = from Zeng, J.; Huang, T.; Li, F.; Zhu, Z.; Chen, L.; Feng, L. (2014). Determination of apparent oil-water partition coefficient and equilibrium solubility of levonorgestrel and gestodene by RP-HPLC. …
[10] = not given; remark: listed apart in the source
[11] = not given; remark: listed apart in the source
[12] = not given; remark: listed apart in the source
[13] = not given; remark: listed apart in the source
[14] = method code SF-AS, from PMID: 7460030; conditions: pH 7.3
[15] = from Letourneux, Y.; Sparfel, L.; Roussakis, C.; Piessard, S.; LeBaut, G. (1984). Pyrophthalones. VI. Derivatives of (N-alkyldihydro-1,4-pyridinyliden-4-yl)-2-indanedione-1,3. Search for antitumor …; conditions: pH 7.4
[16] = method code SF-RC, from PMID: 447850; conditions: pH 7.4
[17] = method code SF, from DOI: 10.1016/s0223-5234(00)80025-2, PMID: 11278041; conditions: pH 7.4
[18] = method code SF, from DOI: 10.1021/jm00169a014, PMID: 2362268; conditions: pH 7.4
[19] = method code SF, from DOI: 10.1016/0014-2999(77)90010-3, PMID: 336381; conditions: pH 9.8
[20] = not given; remark: listed apart in the source
[21] = method code SF-RC, from DOI: 10.1016/j.nucmedbio.2013.04.008, PMID: 23731552; conditions: pH 7.4
[22] = not given; remark: listed apart in the source
[23] = method code SF-HPLC, from DOI: 10.1016/j.ejps.2006.07.007, PMID: 16997537; conditions: pH 7.4
[24] = method code SF-HPLC, from DOI: 10.1016/j.jpba.2007.09.019, PMID: 17988818
[25] = not given; remark: listed apart in the source
[26] = method code SF-AS, from DOI: 10.1021/jm300468t, PMID: 22574992; conditions: pH 9.0
[27] = not given; remark: listed apart in the source
[28] = not given; remark: listed apart in the source
[29] = method code SF-RC, from DOI: 10.1002/jlcr.3239, PMID: 25359578; conditions: pH 7.4
[30] = method code SF-HPLC, from DOI: 10.1016/j.ejps.2016.07.010, PMID: 27422078; conditions: pH 7.4
[31] = method code SF-AS, from DOI: 10.1021/jm9807104, PMID: 10514282; conditions: pH 7.0
[32] = method code SF-LC/MS, from DOI: 10.1002/rcm.3594, PMID: 18543375; conditions: pH 7.4
[33] = method code SF-RC, from DOI: 10.1002/jlcr.3404, PMID: 27126914; conditions: pH 7.4
[34] = method code SF, from DOI: 10.1002/syn.20842; conditions: pH 7.4
[35] = method code SF-AS, from PMID: 7306420; conditions: pH 7.5
[36] = method code SF-AS, from DOI: 10.1081/jlc-120004751
[37] = method code SF-AS, from PMID: 7271269; conditions: pH 6.0

## OCCN1CCN(CCC=C2c3ccccc3Sc3ccc(Cl)cc32)CC1
[1]
  logP: 3

## CCCCOc1c(OC)ccc2cc(C(=O)NC3CCCCC3)c(=O)[nH]c12
[2]
  logD: 3.9

## CN(C)c1ccc(/C=C/c2ccc(OCCOCCOCCF)nc2)cc1
[3]
  logD: 3.22

## O=C(OC[C@@H]1O[C@H](n2cc(Br)c(=O)[nH]c2=O)[C@H](F)[C@H]1OC(=O)c1ccccc1)c1ccccc1
[4]
  logD: 3.95

## CCCCC(CC)CN1CN(CC(CC)CCCC)CC(C)(N)C1 (stereo not drawn)
[5]
  logP: 2.05

## COc1cc(C2c3cc4c(cc3C(O)C3COC(=O)C23)OCO4)cc(OC)c1OC (stereo not drawn)
other
  logP: 2.01

## CN1CN(c2ccccc2)C2(CCN(CCCC(=O)c3ccc(I)s3)CC2)C1=O
[6]
  logP: 3.14

## COc1cccc([C@H](O)C2CCN(CCc3ccc(F)cc3)CC2)c1OC
[7]
  logP: 3.8

## CC(C)(C)CC(=O)N1CCC(N(c2ccc(C(F)(F)F)cc2)c2cccnc2)CC1
[8]
  logP: 4.2

## C#C[C@]1(O)C=C[C@H]2[C@@H]3CCC4=CC(=O)CC[C@@H]4[C@H]3CC[C@@]21CC
[9]
  logP: 3.45

## FCCC1OC2(CCN(Cc3ccccc3)CC2)c2ccccc21 (stereo not drawn)
[10]
  logP: 3.58

## CNC(=O)c1ccc(Oc2ccc3c(c2)CCN(C2CCC2)CC3)nc1
[11]
  logP: 2.24

## FCCOc1ccc(CN2CCN(Cc3cc4ccccc4o3)CC2)cc1
[12]
  logP: 3.35

## Oc1ccc2ccccc2c1/N=N/c1ccc(/N=N/c2ccccc2)cc1
[13]
  logP: 2.11

## CCCCCOc1cccc(NC(=O)OC2CCCCC2)c1-n1ccnc1
[14]
  logD: 3.38

## CC1=CC(=C2C(=O)c3ccccc3C2=O)C=C(C)N1CCCNC(=O)N(CCCl)N=O
[15]
  logD: 2.84

## C[C@]12CCC(=O)C=C1CC[C@@H]1[C@@H]2[C@@H](O)C[C@]2(C=O)[C@@H](C(=O)CO)CC[C@@H]12
[16]
  logD: 1.08

## CC(C)Cc1ccc(C(C)C(=O)OCN2C(=O)C(=O)c3ccccc32)cc1 (stereo not drawn)
[17]
  logD: 4.23

## CC(=O)Oc1ccc(C(c2ccc(OC(C)=O)cc2)c2ccccn2)cc1
[18]
  logD: 2.64

## O=c1[nH]c2ccccc2n1C1CCN(C[C@@H](O)[C@@H]2COc3ccccc3O2)CC1 (relative stereo)
[19]
  logD: 3.43

## CN(C)Cc1ccc(CSCCNc2[nH]cc(Cc3ccccc3)c2[N+](=O)[O-])o1
[20]
  logP: 3.65

## O=C(Nc1cccnn1)N1CCC(=Cc2cccc(Oc3ccc(C(F)(F)F)cn3)c2)CC1
[21]
  logD: 3.48

## C=CCn1nc(-c2sc(NC(=O)C(C)(C)C)nc2C)cc1C(=O)NCc1ccccc1
[22]
  logP: 4.33

## CCOC(=O)C1OC(Oc2cc3oc(-c4ccc(O)cc4)cc(=O)c3c(O)c2O)C(O)C(O)C1O (stereo not drawn)
[23]
  logD: 2.37

## COc1cc(C=Cc2cc(/C=C/c3ccc(O)c(OC)c3)n[nH]2)ccc1O
[24]
  logP: 1.78

## COCCOC(=O)C1=C(C)NC(C)=C(C(=O)OC(C)C)C1c1cccc([N+](=O)[O-])c1 (stereo not drawn)
[25]
  logP: 2.82

## Cc1c2c3cc(NC(=O)CNC(=O)CN)ccc3nc-2n(C)c2ccccc12
[26]
  logD: 0.85

## COc1cc2nc(N3CCN(C(=O)C4COc5ccccc5O4)CC3)nc(N)c2cc1OC (stereo not drawn)
[27]
  logP: 3.38

## O=C1C(=O)c2ccccc2C(O)=C1C1CCC(c2ccc(Cl)cc2)CC1 (stereo not drawn)
[28]
  logP: 5.07

## O=C(NCCF)Nc1ccc(-c2nc(N3CC4CCC(C3)O4)c3cnn(CC(F)(F)F)c3n2)cc1
[29]
  logD: 1.9

## Cc1cc(=O)c2c(O)cc(O)c(C3CCN(C)CC3OC(=O)c3ccccc3)c2o1 (stereo not drawn)
[30]
  logD: 2.33

## COC(=O)C(C)NP(=O)(Oc1cccc(C(F)(F)F)c1)OC1C=CC(n2cc(C)c(=O)[nH]c2=O)O1 (stereo not drawn)
[31]
  logD: 1.57

## COc1cc2c(c(OC)c1OC)-c1ccc(OC)c(=O)cc1[C@@H](NC(C)=O)CC2
[32]
  logD: 1.08

## COc1ccc2c(C3=C(c4cn(C)c5ccc(I)cc45)C(=O)NC3=O)coc2c1
[33]
  logD: 3.23

## CCCS(=O)(=O)N1CCC(CNC(=O)c2ccc(Cl)cc2Cl)(c2cccc(F)n2)CC1
[34]
  logD: 2.9

## CS(=O)(=O)c1ccc2c(c1)N(CCCN1CCC(C(N)=O)CC1)c1ccccc1S2
[35]
  logD: 2.02

## Cc1cn(C2CC(N=[N+]=[N-])C(COC(=O)C(=O)NC(Cc3c[nH]c4ccccc34)C(=O)O)O2)c(=O)[nH]c1=O (stereo not drawn)
[36]
  logP: 0.67

## COCOC(=O)C1N2C(=O)C(N3C(=O)C(c4ccc(O)cc4)NC3(C)C)C2SC1(C)C (stereo not drawn)
[37]
  logD: 0.3
